pIC50: −log10 of the molar value. Several values for one entry are separate records, joined by “and”; a condition that tells them apart may be missing. Equal entries are not always repeated. Where two headings read alike, the source gives them in different places.
Assays:
[1] = test system: Rat2 fibroblasts stably transformed with a plasmid containing a CMV promotor controlled v-Src/Hu c-Src fusion gene; experiment: Anchorage Independent Src-transformed Fibroblast Proliferation Assay
c-Src = biological target: T1, c-Src (Homo sapiens, UniProt P12931); experiment: c-Src Kinase Assay (ELISA format); type: biochemical
T1 construct: purchased Upstate Biotechnologies
Experimental: Inhibitors of Src (partially purified preparation purchased from Upstate Biotechnologies) tyrosine kinase activity are analyzed in an ELISA format. […] Horseradish Peroxidase (HRP)-conjugated anti-phosphotyrosine is used to detect phosphorylated peptide via a color reaction. Conditions recommended by the manufacturer are employed.
Reaction conditions: Five microliter aliquots of each compound prepared fresh at the time of the assay are added as a solution in 10mM HEPES pH 7.5, 10% DMSO to the reaction well. Thirty-five microliters of reaction mix containing Src, buffer and peptide/bovine serum albumin mix are added to the compound wells and incubated at 30°C for 10 minutes (reaction buffer: 50mM TrisHCl pH 7.5, 10mM MgCl2, 0.1mM EGTA, 0.5mM Na3VO4). The reaction is started by addition of 10 microliters of ATP, incubated at 30°C for 1 hour, and stopped by addition of 20 microliters of 0.5M EDTA. The reaction mixture with the phosphorylated peptide is then transferred to a streptavidin-coated microtiter plate (provided in the kit) and allowed to bind for 20 minutes. Unbound peptide and reaction mixture is decanted and the plate is washed with PBS six times. HRP-conjugated phosphotyrosine antibody supplied in the kit is incubated with the plate for one hour, then decanted. The plate is again washed with PBS six times.
Activity is determined as % inhibition as calculated by the formula: (1 - Abs/Abs(max)) x 100 = % inhibition.

[2] = Rattus norvegicus, Rat2, 120 h, read-out: anch-indep src-tx fib IC50, suspension growth, MTS on Day 5
[3] = read-out: anch-indep src-tx fib IC50, suspension growth, MTS on Day 5

T1 sequence (P12931 whole entry, species assumed): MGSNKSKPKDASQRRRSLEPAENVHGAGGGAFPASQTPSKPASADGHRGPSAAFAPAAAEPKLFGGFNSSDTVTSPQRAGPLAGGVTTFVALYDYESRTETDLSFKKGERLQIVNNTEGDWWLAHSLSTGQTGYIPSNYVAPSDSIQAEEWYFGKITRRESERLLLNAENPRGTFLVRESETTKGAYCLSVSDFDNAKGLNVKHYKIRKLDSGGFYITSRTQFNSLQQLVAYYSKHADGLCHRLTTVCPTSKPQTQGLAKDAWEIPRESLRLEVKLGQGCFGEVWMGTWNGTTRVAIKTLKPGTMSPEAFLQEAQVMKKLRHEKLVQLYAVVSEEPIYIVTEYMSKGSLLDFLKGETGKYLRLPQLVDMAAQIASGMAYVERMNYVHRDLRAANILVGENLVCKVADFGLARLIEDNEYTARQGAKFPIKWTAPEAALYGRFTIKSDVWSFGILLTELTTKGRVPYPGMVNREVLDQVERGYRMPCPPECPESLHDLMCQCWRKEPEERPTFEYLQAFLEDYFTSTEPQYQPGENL

Row | pIC50 (c-Src) | Structure (SMILES) | pIC50 [1, 2] | pIC50 [1, 3] | pIC50 ([1]; Rattus norvegicus, Rat2, 120 h, read-out: anch-indep src-tx fib IC50)
1 | 9.33 | COc1cc(Nc2c(C#N)cnc3cc(-c4ccc(CN5CCCCC5C(=O)O)cc4)ccc23)c(Cl)cc1Cl (centres unmarked) [Example 147, 1-{4-[3-cyano-4-(2,4-dichloro-5-methoxyanilino)-7-quinolinyl]benzyl}-2-piperidinecarboxylic acid] | 5.34 |  | 
2 | 6.70 | COc1cc(Nc2c(C#N)cnc3cc(-c4cscc4CN4CCOCC4)ccc23)c(Cl)cc1Cl [Example 65, 4-(2,4-Dichloro-5-methoxyanilino)-7-[4-(4-morpholinylmethyl)-3-thienyl]-3-quinolinecarbonitrile] | < 5.00 |  | 
3 | 8.09 | COc1cc(Nc2c(C#N)cnc3cc(-c4ccc(C5OCCO5)s4)ccc23)c(Cl)cc1Cl [Example 51, 4-(2,4-Dichloro-5-methoxyanilino)-7-[5-(1,3-dioxolan-2-yl)-2-thienyl]-3-quinolinecarbonitrile] | 6.38 |  | 
4 | 6.62 and 6.70 | COc1cc(Nc2c(C#N)cnc3cc(C#Cc4ccccc4)ccc23)c(Cl)cc1Cl [Example 140, 4-(2,4-dichloro-5-methoxyanilino)-7-(2-phenylethynyl)-3-quinolinecarbonitrile] | < 5.00 |  | 
5 | 7.92 and 7.80 | COc1cc(Nc2c(C#N)cnc3cc(-c4csc(CN5CCOCC5)c4)ccc23)c(C)cc1Cl [Example 167, 4-(4-chloro-5-methoxy-2-methylanilino)-7-[5-(4-morpholinylmethyl)-3-thienyl]-3-quinolinecarbonitrile] | 6.05 |  | 
6 | 6.42 | COc1cc(Nc2c(C#N)cnc3cc(-c4ccsc4CN4CCOCC4)ccc23)c(Cl)cc1Cl [Example 66, 4-(2.4-Dichloro-5-methoxyanilino)-7-[2-(4-morpholinylmethyl)-3-thienyl]-3-quinolinecarbonitrile] | < 5.00 |  | 
7 | 7.37 | N#Cc1cnc2cc(C#CCCCN3CCOCC3)ccc2c1Nc1ccc(Cl)cc1Cl [Example 11, 4-(2,4-Dichloroanilino)-7-[5-(4-morpholinyl)-1-pentynyl]-3-quinolinecarbonitrile] | < 5.00 |  | 
8 | 7.92 | COc1ccc(-c2ccc3c(Nc4cc(OC)c(Cl)cc4Cl)c(C#N)cnc3c2)cc1 [Example 194, 4-(2,4-dichloro-5-methoxyanilino)-7-(4-methoxyphenyl)-3-quinolinecarbonitrile] | < 5.00 |  | 
9 | 9.64 | CCN1CCN(c2ccc(-c3ccc4c(Nc5cc(OC)c(Cl)cc5Cl)c(C#N)cnc4c3)nc2)CC1 [Example 179, 4-[(2,4-dichloro-5-methoxyphenyl)amino]-7-[5-(4-ethyl-1-piperazinyl)-2-pyridinyl]-3-quinolinecarbonitrile] | 6.57 |  | 
10 | 8.44 and 8.22 and 8.31 | N#Cc1cnc2cc(-c3csc(CN4CCOCC4)c3)ccc2c1Nc1ccc(Cl)cc1Cl [Example 25, 4-(2,4-Dichloroanilino)-7-[5-(4-morpholinylmethyl)-3-thienyl]-3-quinolinecarbonitrile] | 5.89 | 6.03 | 
11 | 8.32 and 8.74 | COc1cc(Nc2c(C#N)cnc3cc(-c4ccc(C(=O)O)cc4)ccc23)c(Cl)cc1Cl [Example 121, 4-[3-Cyano-4-(2,4-dichloro-5-methoxyanilino)-7-quinolinyl]benzoic acid] | < 5.00 |  | 
12 | 7.62 | COc1cc(Nc2c(C#N)cnc3cc(-c4ccc(CN5CCN(CCO)CC5)o4)ccc23)c(Cl)cc1Cl [Example 75, 4-(2,4-Dichloro-5-methoxyanilino)-7-(5-{[4-(2-hydroxyethyl)-1-piperazinyl]methyl}-2-furyl)-3-quinolinecarbonitrile] | 6.54 |  | 
13 | 8.22 | N#Cc1cnc2cc(-c3ccc(CCN4CCOCC4)s3)ccc2c1Nc1ccc(Cl)cc1Cl [Example 9, 4-(2,4-Dichloroanilino)-7-{5-[2-(4-morpholinyl)ethyl]-2-thienyl}-3-quinolinecarbonitrile] | 5.57 |  | 
14 | 7.52 | COc1cc(Nc2c(C#N)cnc3cc(-c4cnc(N5CCOCC5)nc4)ccc23)c(Cl)cc1Cl [Example 186, 4-(2,4-dichloro-5-methoxyanilino)-7-[2-(4-morpholinyl)-5-pyrimidinyl]-3-quinolinecarbonitrile] | < 5.00 |  | 
15 | 8.40 | COc1cc(Nc2c(C#N)cnc3cc(-c4ccc(C=O)o4)ccc23)c(Cl)cc1Cl [Example 6, 4-(2,4-Dichloro-5-methoxyanilino)-7-(5-formyl-2-furyl)-3-quinolinecarbonitrile] | 5.80 |  | 
16 | 7.20 | CN(C)CC#Cc1ccc2c(Nc3ccc(Cl)cc3Cl)c(C#N)cnc2c1 [Example 15, 4-(2,4-Dichloroanilino)-7-[3-(dimethylamino)-1-propynyl]-3-quinolinecarbonitrile] | < 5.00 |  | 
17 | 6.68 and 6.80 and 6.92 | COc1cc(Nc2c(C#N)cnc3cc(-c4ccc5ccccc5c4)ccc23)c(Cl)cc1Cl [Example 117, 4-(2,4-Dichloro-5-methoxyanilino)-7-(2-naphthyl)-3-quinolinecarbonitrile] | 5.16 |  | 
18 | 8.96 and 9.10 | COc1cc(Nc2c(C#N)cnc3cc(-c4cc(CN5CCOCC5)c(CN5CCOCC5)s4)ccc23)c(Cl)cc1Cl [Example 20, 7-[4,5-Bis(4-morpholinylmethyl)-2-thienyl]-4-(2,4-dichloro-5-methoxyanilino)-3-quinolinecarbonitrile] | 7.40 | 7.52 | 
19 | 7.38 | COc1cc(Nc2c(C#N)cnc3cc(-c4ccc(C=O)cc4)ccc23)c(Cl)cc1Cl [Example 83, 4-(2.4-Dichloro-5-methoxyanilino)-7-(4-formylphenyl)-3-quinolinecarbonitrile] | 5.41 |  | 
20 | 7.44 and 7.39 | COc1cc(Nc2c(C#N)cnc3cc(-c4ccc(CNCCS(=O)(=O)c5ccccc5)cc4)ccc23)c(Cl)cc1Cl [Example 85, 4-(2,4-Dichloro-5-methoxyanilino)-7-[4-({[2-(phenylsulfonyl)ethyl]amino}methyl)phenyl]-3-quinolinecarbonitrile] | 4.99 |  | 
21 | 7.59 | COc1cc(Nc2c(C#N)cnc3cc(C#CCO)ccc23)c(Cl)cc1Cl [Example 143, 4-(2,4-dichloro-5-methoxyanilino)-7-(3-hydroxy-1-propynyl)-3-quinolinecarbonitrile] | < 5.00 |  | 
22 | 7.59 and 7.62 | COc1cc(Nc2c(C#N)cnc3cc(-c4ccc(CN5CCN(C)CC5)n4C)ccc23)c(Cl)cc1Cl [Example 71, 4-(2,4-Dichloro-5-methoxyanilino)-7-{1-methyl-5-[(4-methyl-1-piperazinyl)methyl]-1H-pyrrol-2-yl}-3-quinolinecarbonitrile] | 5.17 |  | 
23 | 7.72 | COc1cc(Nc2c(C#N)cnc3cc(-c4ccc(CN5CCOCC5)cc4)c(OC)cc23)c(Cl)cc1Cl [Example 37, 4-(2,4-Dichloro-5-methoxyanilino)-6-methoxy-7-[4-(4-molpholinylmethyl)phenyl]-3-quinolinecarbonitrile] | 5.80 | 5.83 | 
24 |  | COc1cc(Nc2c(C#N)cnc3cc(-c4ccc(CN5CCOCC5)cn4)ccc23)c(Cl)cc1Cl [Example 57, 4-(2,4-Dichloro-5-methoxyanilino)-7-[5-(4-morpholinylmethyl)-2-pyridinyl]-3-quinolinecarbonitrile] |  |  | 7.30
